Experimental data as given in ChEMBL document CHEMBL1938341, “Alkylated flavanones from the bark of Cryptocarya chartacea as dengue virus NS5 polymerase inhibitors” (J Nat Prod, 2011).
pIC50: −log10 of the molar value.

Assays:
[1] = system: KB; assay: Cytotoxicity against human KB cells; assay type: cell-based
[2] = Inhibition of Dengue virus 2 NS5 polymerase-mediated RNA synthesis expressed in Escherichia coli Rosetta pLac1 cells assessed as [3H]GTP incorporation after 5 mins by scintillation counting; design: species or system dengue virus type 2; settings: for pIC50: read-out: IC50
[3] = Inhibition of Bovine diarrhea virus NS5 polymerase-mediated RNA synthesis expressed in Escherichia coli Rosetta pLac1 cells assessed as [3H]GTP incorporation after 5 mins by scintillation counting; design: species or system Bovine viral diarrhea virus 1
[4] = Growth inhibition of human KB cells at 10 ug/ml; assay type: cell-based; settings: read-out: GI

Compound: CC(=O)O[C@@]12CO[C@@H]1C[C@H](O)[C@@]1(C)C(=O)[C@H](O)C3=C(C)[C@@H](OC(=O)[C@H](O)[C@@H](NC(=O)OC(C)(C)C)c4ccccc4)C[C@@](O)([C@@H](OC(=O)c4ccccc4)[C@H]21)C3(C)C [DOCETAXEL]
- pIC50 [1]: 7.82

Compound: O=C(O)CCCC(/C=C/c1ccccc1)c1c(O)c2c(c(C(/C=C/c3ccccc3)CCCC(=O)O)c1O)OC(c1ccccc1)CC2=O (racemic)
- pIC50 [2]: 5.62
- pIC50 [3]: < 4.30
- inhibition at 10 ug/ml [4]: 0%

Compound: O=C(O)CCC[C@@H](/C=C/c1ccccc1)c1c(O)cc2c(c1O)C(=O)C[C@H](c1ccccc1)O2
- pIC50 [2]: 5.05
- pIC50 [3]: < 4.30
- inhibition at 10 ug/ml [4]: 11%

Compound: O=C(O)CCC[C@H](/C=C/c1ccccc1)c1c(O)cc2c(c1O)C(=O)C[C@H](c1ccccc1)O2
- pIC50 [2]: 4.82
- pIC50 [3]: < 4.30
- inhibition at 10 ug/ml [4]: 0%

Compound: O=C(O)CCC/C=C/C(c1ccccc1)c1c(O)c2c(c(C(/C=C/CCCC(=O)O)c3ccccc3)c1O)OC(c1ccccc1)CC2=O (racemic)
- pIC50 [2]: 5.38
- pIC50 [3]: < 4.30
- inhibition at 10 ug/ml [4]: 0%

Compound: Nc1nc2c(ncn2[C@@H]2O[C@H](COP(=O)(O)OP(=O)(O)OP(=O)(O)O)C[C@H]2O)c(=O)[nH]1
- pIC50 [2]: 7.70
- pIC50 [3]: > 6.00

Compound: O=C(O)CCC/C=C/C(c1ccccc1)c1c(O)cc2c(c1O)C(=O)CC(c1ccccc1)O2 (racemic)
- pIC50 [2]: 4.14
- pIC50 [3]: < 4.30
- inhibition at 10 ug/ml [4]: 0%

Compound: O=C(O)CCC/C=C/C(c1ccccc1)c1c(O)c2c(c(C(/C=C/c3ccccc3)CCCC(=O)O)c1O)OC(c1ccccc1)CC2=O (racemic)
- pIC50 [2]: 5.74
- pIC50 [3]: < 4.30
- inhibition at 10 ug/ml [4]: 0%

Compound: O=C1C[C@@H](c2ccccc2)Oc2cc(O)cc(O)c21 [PINOCEMBRIN]
- IC50 [2]: Not Active
- inhibition at 10 ug/ml [4]: 0%

Compound: O=C(O)CCC/C=C/C(c1ccccc1)c1c(O)c(C(/C=C/c2ccccc2)CCCC(=O)O)c(O)c2c1OC(c1ccccc1)CC2=O (racemic)
- pIC50 [2]: 5.54
- pIC50 [3]: < 4.30
- inhibition at 10 ug/ml [4]: 0%

Compound: O=C(O)CCC[C@H](/C=C/c1ccccc1)c1c(O)cc2c(c1O)C(=O)C[C@@H](c1ccccc1)O2 [CHARTACEONE A3]
- pIC50 [2]: 4.57
- pIC50 [3]: < 4.30
- inhibition at 10 ug/ml [4]: 0%

Compound: O=C(O)CCC[C@@H](/C=C/c1ccccc1)c1c(O)cc2c(c1O)C(=O)C[C@@H](c1ccccc1)O2 [CHARTACEONE A4]
- pIC50 [2]: 5.13
- pIC50 [3]: < 4.30
- inhibition at 10 ug/ml [4]: 6%

Compound: O=C(O)CCCC(/C=C/c1ccccc1)c1c(O)cc2c(c1O)C(=O)CC(c1ccccc1)O2 (racemic)
- pIC50 [2]: 4.83
- pIC50 [3]: < 4.30
- inhibition at 10 ug/ml [4]: 3.2%
